From US9284283B2, “Macrocyclic compounds for modulating IL-17” (ENSEMBLE THERAPEUTICS CORPORATION, priority 2012, dated 2016) come the findings set out here.

For orientation: Kd means the constant that tells how readily two partners part at equilibrium. Higher therefore signals weaker binding. For orientation: IC50 means the midpoint of a concentration-inhibition curve.

The target of test [1] is T1, IL17A (Homo sapiens, UniProt Q16552).
T1 sequence (Q16552 24-155): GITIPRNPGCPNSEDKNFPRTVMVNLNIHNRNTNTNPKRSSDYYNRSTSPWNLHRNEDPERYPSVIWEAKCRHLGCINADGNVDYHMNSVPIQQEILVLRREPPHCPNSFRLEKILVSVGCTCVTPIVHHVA
The test can be described thus: Surface Plasmon Resonance (SPR) analysis of compound interactions with IL17A. To be noted: SPR binding to IL17A. An outline of the steps:
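His-tagged IL17A captured on a Ni-NTA chip; five 2- or 3-fold compound dilutions from 50 μM injected for 180 s, 120 s dissociation, in HEPES-saline buffer with 0.5% DMSO. Baseline-subtracted sensorgrams fitted 1:1 for ka, kd and KD; Kd also derived from binding extent per concentration.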
(Surface plasmon resonance follows binding to a sensor surface in real time, without labels.)

Test [2] concerns IL-17-induced GROα secretion from HT-29 cells. Put plainly: HT-29 cellular assay (IL-17-induced GROα secretion). It counts as cell-based. To be noted: Homo sapiens. How it is done:
To test the ability of a compound of the invention to neutralize or antagonize IL-17 bioactivity, the following cell-based assay was used. IL-17 can stimulate epithelial cells and other cells to secrete GROα. The ability of a compound of the invention to neutralize IL-17-induced GROα secretion from the human colorectal adenocarcinoma epithelial cell line HT-29 is tested in this assay.
HT-29 cells (human colorectal adenocarcinoma epithelial cells, ATCC #HTB-38), were maintained in culture/assay medium in tissue culture-treated flasks using standard techniques. HT-29 cells were grown in tissue culture flasks until they were 50-80% confluent on the day before the assay. The day before the assay, the cells were detached from the culture flasks with trypsin+EDTA. The trypsin was inactivated with complete assay medium. HT-29 cells were then centrifuged at 500×g for 5 minutes at room temperature. The cell pellet was then re-suspended in Defined Keratinocyte SFM (Invitrogen #10766019)+10% FCS and 50,000 HT-29 cells (in 100 μl) were added to each treatment well of the 96-well plates. The 96-well plates were placed in a tissue culture incubator (37° C., 5% CO2) overnight. The next day, the media was removed from the cells and the cells were washed twice with Defined Keratinocyte SFM. In a separate 96-well plate, compounds to be tested were serially diluted in Defined Keratinocyte SFM and run in triplicate in 100 μL total volume. To these compound samples were then added 100 μL of human IL-17 at a concentration of 20 ng/mL in Defined Keratinocyte SFM for serum-free assays. 150 μL of the compound/IL-17 mixture was then added to the cells from which the media has previously been removed. The cells were grown for 48 hours in Defined Keratinocyte SFM in a tissue culture incubator (37° C., 5% CO2).
At the end of the incubation, the plates are centrifuged (500×g for 5 minutes at room temperature), and the cell culture media is transferred to polypropylene 96-well plates. The supernatant was used neat in the ELISA. GROα levels are measured with a GROα sandwich ELISA (R+D Systems DuoSet #DY275E), as per the manufacturer's instructions. The ELISA plates were previously coated with mAb 275 (R+D Systems) at 4 μg/mL. GROα is detected using biotinylated goat anti-human GROα (R+D Systems BAF275) at 200 ng/mL using TMB as a substrate. At the end of the ELISA reactions, plates are read at 450 nm on a microplate reader and compared to a standard calibration curve.

For test [3], the target named is T2, recombinant human IL17a (binding to its receptor IL17R) (Homo sapiens, UniProt Q16552).
T2 construct: purchased R&D Systems 317-ILB (IL17a); 177-IR (IL17R/Fc)
T2 sequence (Q16552 20-155 limits assumed): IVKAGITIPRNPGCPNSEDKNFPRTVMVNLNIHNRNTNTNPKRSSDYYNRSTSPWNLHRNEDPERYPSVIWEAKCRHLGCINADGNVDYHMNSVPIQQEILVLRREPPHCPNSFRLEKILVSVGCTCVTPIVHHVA
Put plainly: IL-17 competition ELISA I (IL17a coated, IL17R/Fc binding). An outline of the steps: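 Plates coated with 20 nM recombinant human IL17a received compound dilutions and 12 nM IL17R/Fc (final) for 30 min at room temperature. Bound receptor was detected with HRP anti-human Fc and TMB, read at 450 nm. IC50 came from a 4-parameter logistic fit between no-competitor and blank controls.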

Molecules are shown by their SMILES.

Molecule `COC(=O)[C@H]1CCCCNC(=O)CCCNC(=O)[C@@H](Cc2ccc(NC(=O)[C@H](Cc3ccccc3F)NC(=O)Cc3ccccc3)cc2)NC(=O)CC2(CCCC2)CC(=O)N1` [Compound 107] gave a Kd in test [1] of 0.1 to 1 µM. Also, in test [2], the IC50 was > 10 µM.
For `COC(=O)[C@@H]1CCCCNC(=O)CNC(=O)[C@@H](Cc2ccc(NC(=O)[C@H](Cc3ccccc3F)NC(=O)Cc3ccccc3)cc2)NC(=O)CC2(CCCC2)CC(=O)N1` [Compound 108], in that order: < 0.1 µM and 1 to 10 µM.
As for `COC(=O)[C@@H]1CCCCNC(=O)CCNC(=O)[C@@H](Cc2ccc(NC(=O)[C@H](Cc3ccccc3F)NC(=O)Cc3ccccc3)cc2)NC(=O)CC2(CCCC2)CC(=O)N1` [Compound 109], in test [1], the Kd lay in the range of 0.1 to 1 µM. For the same molecule, in test [2], the IC50 was 1 to 10 µM.
For `COC(=O)[C@@H]1CCCCNC(=O)CCCCNC(=O)[C@@H](Cc2ccc(NC(=O)[C@H](Cc3ccccc3F)NC(=O)Cc3ccccc3)cc2)NC(=O)CC2(CCCC2)CC(=O)N1` [Compound 110], in that order: 0.1 to 1 µM and > 10 µM.
For `COC(=O)[C@@H]1CCCCNC(=O)CCCNC(=O)[C@@H](Cc2ccc(NC(=O)[C@H](Cc3ccccc3Cl)NC(=O)Cc3ccccc3)cc2)NC(=O)CC2(CCCC2)CC(=O)N1` [Compound 112], in that order: < 0.1 µM and 1 to 10 µM.
In test [1], `COC(=O)[C@@H]1CCCCNC(=O)CCCNC(=O)[C@@H](Cc2ccc(NC(=O)[C@H](Cc3ccccc3Cl)NC(=O)c3ccccc3)cc2)NC(=O)CC2(CCCC2)CC(=O)N1` [Compound 113] yielded a Kd of 0.1 to 1 µM. Further, the IC50 in test [2] is > 10 µM.
Take `COC(=O)[C@@H]1CCCCNC(=O)CCCNC(=O)[C@@H](Cc2ccc(NC(=O)[C@H](Cc3ccccc3Br)NC(=O)Cc3ccccc3)cc2)NC(=O)CC2(CCCC2)CC(=O)N1` [Compound 120]: in test [2], the 50% inhibitory concentration (IC50) is 1 to 10 µM.
For the molecule `COC(=O)[C@H]1CCCCNC(=O)CNC(=O)[C@@H](Cc2ccc(NC(=O)[C@H](Cc3ccccc3Cl)NC(=O)Cc3ccccc3)cc2)NC(=O)CC2(CCCC2)CC(=O)N1` [Compound 141], the Kd in test [1] is < 0.1 µM. In test [2], this molecule yielded a concentration for half-maximal inhibition (IC50) of 1 to 10 µM.
Consider `COC(=O)[C@H]1CCCCNC(=O)CNC(=O)[C@@H](Cc2ccc(NC(=O)[C@H](Cc3ccccc3Cl)NC(=O)c3ccccc3)cc2)NC(=O)CC2(CCCC2)CC(=O)N1` [Compound 142], for which the Kd in test [1] was < 0.1 µM. In addition, the IC50 in test [2] fell in the range of 1 to 10 µM.
Consider `O=C1CNC(=O)[C@@H](Cc2ccc(NC(=O)[C@H](Cc3ccccc3F)NC(=O)Cc3ccccc3)cc2)NC(=O)CC2(CCCC2)CC(=O)N[C@H](C(=O)O)CCCCN1` [Compound 177], for which the Kd in test [1] was < 0.1 µM. The IC50 in test [2] lay in the range of 1 to 10 µM.
`O=C1CNC(=O)[C@@H](Cc2ccc(NC(=O)[C@H](Cc3ccccc3Cl)NC(=O)Cc3ccccc3)cc2)NC(=O)CC2(CCCC2)CC(=O)N[C@@H](C(=O)O)CCCCN1` [Compound 180]: the Kd in test [1] is < 0.1 µM. Further, the IC50 in test [3] was < 0.1 µM; in test [2] it was < 1 µM.
Turning to `O=C1CNC(=O)[C@@H](Cc2ccc(NC(=O)[C@H](Cc3c(F)cccc3F)NC(=O)Cc3ccccc3)cc2)NC(=O)CC2(CCCC2)CC(=O)NCCCCCN1` [Compound 184], in test [1], the Kd is < 0.1 µM. In test [2], the IC50 was 1 to 10 µM.
`O=C1CNC(=O)[C@@H](Cc2ccc(NC(=O)[C@H](Cc3ccccc3Br)NC(=O)Cc3ccccc3)cc2)NC(=O)CC2(CCCC2)CC(=O)NCCCCCN1` [Compound 187]: in test [1], the dissociation constant Kd is < 0.1 µM. Further, the IC50 in test [3] was < 0.1 µM; in test [2], 1 to 10 µM.
